Experimental data reported in BindingDB's records for doi:10.7270/Q2J67FB5 (Nmmlsc, 2007).

These compounds were tested against T1, fMet-Leu-Phe receptor (Homo sapiens, UniProt P21462) (assay: formyl peptide receptor binders – dose response (AID 519)).
T1 sequence (P21462 whole entry): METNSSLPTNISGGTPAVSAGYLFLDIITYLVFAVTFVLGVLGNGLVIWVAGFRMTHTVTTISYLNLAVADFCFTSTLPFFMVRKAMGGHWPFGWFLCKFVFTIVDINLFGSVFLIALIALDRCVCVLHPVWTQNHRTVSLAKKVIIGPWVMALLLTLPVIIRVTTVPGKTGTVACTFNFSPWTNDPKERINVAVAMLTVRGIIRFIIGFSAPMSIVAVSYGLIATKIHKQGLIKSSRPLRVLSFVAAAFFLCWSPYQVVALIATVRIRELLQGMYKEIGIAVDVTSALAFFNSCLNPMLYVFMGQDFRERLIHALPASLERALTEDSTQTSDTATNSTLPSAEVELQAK

| SMILES | IC50 [µM] |
| --- | --- |
| C=CCOc1ccc(C2C(C(=O)c3cccs3)C(=O)C(=O)N2c2nnc(C)s2)cc1 (stereo not drawn) [1-(5-methyl-1,3,4-thiadiazol-2-yl)-4-oxidanyl-2-(4-prop-2-enoxyphenyl)-3-thiophen-2-ylcarbonyl-2H-pyrrol-5-one] | 40.5 |
| CCCOc1ccc(C2C(C(=O)c3ccco3)C(=O)C(=O)N2CCCn2ccnc2)cc1 (stereo not drawn) [3-(furan-2-carbonyl)-4-hydroxy-1-(3-imidazol-1-ylpropyl)-2-(4-propoxyphenyl)-2H-pyrrol-5-one] | > 66.7 |
| O=C1C(=O)N(CCCN2CCOCC2)C(c2ccccn2)C1C(=O)c1cc2ccccc2o1 (stereo not drawn) [3-(1-benzofuran-2-carbonyl)-4-hydroxy-1-(3-morpholin-4-ylpropyl)-2-pyridin-2-yl-2H-pyrrol-5-one] | 60.7 |
| O=C1C(=O)N(Cc2ccccc2)C(c2ccncc2)C1C(=O)c1ccco1 (stereo not drawn) [1-Benzyl-4-(furan-2-carbonyl)-3-hydroxy-5-pyridin-4-yl-1,5-dihydro-pyrrol-2-one] | 13.6 |
| COC(=O)c1ccc(C2C(C(=O)c3ccc(OC)cc3)C(=O)C(=O)N2Cc2ccco2)cc1 (stereo not drawn) [4-[(3Z)-1-(2-furanylmethyl)-3-[hydroxy-(4-methoxyphenyl)methylidene]-4,5-dioxo-2-pyrrolidinyl]benzoic acid methyl ester] | 43 |
| Cc1ccc(C(=O)C2C(=O)C(=O)N(CCCn3ccnc3)C2c2ccc(OC(C)C)cc2)o1 (stereo not drawn) [1-(3-imidazol-1-ylpropyl)-3-(5-methylfuran-2-yl)carbonyl-4-oxidanyl-2-(4-propan-2-yloxyphenyl)-2H-pyrrol-5-one] | > 66.7 |
| COCCN1C(=O)C(=O)C(C(=O)c2ccco2)C1c1cccc(Oc2ccccc2)c1 (stereo not drawn) [3-(furan-2-carbonyl)-4-hydroxy-1-(2-methoxyethyl)-2-(3-phenoxyphenyl)-2H-pyrrol-5-one] | 56 |
| O=C1C(=O)N(CC2CCCO2)C(c2cccnc2)C1C(=O)c1ccco1 (stereo not drawn) [3-(furan-2-carbonyl)-4-hydroxy-1-(oxolan-2-ylmethyl)-2-pyridin-3-yl-2H-pyrrol-5-one] | 54.8 |
| COc1ccc(CCN2C(=O)C(=O)C(C(=O)c3ccco3)C2c2cccs2)cc1OC (stereo not drawn) [1-[2-(3,4-Dimethoxy-phenyl)-ethyl]-4-(furan-2-carbonyl)-3-hydroxy-5-thiophen-2-yl-1,5-dihydro-pyrrol-2-one] | 19 |
| COc1cccc(C2C(C(=O)c3ccc(OC)c(OC)c3)C(=O)C(=O)N2c2cc(C)on2)c1 (stereo not drawn) [(4E)-4-[(3,4-dimethoxyphenyl)-hydroxy-methylene]-5-(3-methoxyphenyl)-1-(5-methylisoxazol-3-yl)pyrrolidine-2,3-quinone] | > 66.7 |
| Cc1ccc(C2C(C(=O)c3cnn(-c4ccccc4)c3C)C(=O)C(=O)N2CCN2CCOCC2)o1 (stereo not drawn) [(4Z)-4-[hydroxy-(5-methyl-1-phenyl-4-pyrazolyl)methylidene]-5-(5-methyl-2-furanyl)-1-[2-(4-morpholinyl)ethyl]pyrrolidine-2,3-dione] | 23.2 |
| CCCOc1ccc(C2C(C(=O)c3ccc(C)o3)C(=O)C(=O)N2Cc2cccnc2)cc1 (stereo not drawn) [3-(5-methylfuran-2-yl)carbonyl-4-oxidanyl-2-(4-propoxyphenyl)-1-(pyridin-3-ylmethyl)-2H-pyrrol-5-one] | 42.7 |
| Cc1ccc(C(=O)C2C(=O)C(=O)N(c3cc(C)on3)C2c2cccc(Br)c2)cc1 (stereo not drawn) [(4E)-5-(3-bromophenyl)-1-(5-methyl-1,2-oxazol-3-yl)-4-[(4-methylphenyl)-oxidanyl-methylidene]pyrrolidine-2,3-dione] | > 66.7 |
| COc1cccc2cc(C(=O)C3C(=O)C(=O)N(Cc4ccco4)C3c3cccnc3)oc12 (stereo not drawn) [1-(2-furanylmethyl)-4-hydroxy-3-[(7-methoxy-2-benzofuranyl)-oxomethyl]-2-(3-pyridinyl)-2H-pyrrol-5-one] | > 66.7 |
| COc1ccc(OC)c(C2C(C(=O)c3cc4ccccc4o3)C(=O)C(=O)N2c2cc(C)on2)c1 (stereo not drawn) [3-(1-benzofuran-2-carbonyl)-2-(2,5-dimethoxyphenyl)-4-hydroxy-1-(5-methyl-1,2-oxazol-3-yl)-2H-pyrrol-5-one] | 36.6 |
| Cc1cc(N2C(=O)C(=O)C(C(=O)c3ccco3)C2c2cccnc2)no1 (stereo not drawn) [3-(furan-2-carbonyl)-4-hydroxy-1-(5-methyl-1,2-oxazol-3-yl)-2-pyridin-3-yl-2H-pyrrol-5-one] | > 66.7 |
| COc1cc(C2C(C(=O)c3ccco3)C(=O)C(=O)N2c2cc(C)on2)cc(Br)c1O (stereo not drawn) [2-(3-bromanyl-5-methoxy-4-oxidanyl-phenyl)-3-(furan-2-ylcarbonyl)-1-(5-methyl-1,2-oxazol-3-yl)-4-oxidanyl-2H-pyrrol-5-one] | 47.7 |
| O=C1CCCC(=O)C1C(C#Cc1ccccc1)C1C(=O)CCCC1=O [3-hydroxy-2-[1-(2-hydroxy-6-keto-cyclohexen-1-yl)-3-phenyl-prop-2-ynyl]cyclohex-2-en-1-one] | > 66.7 |
| COc1cc(-n2nc(C)c3c2OC(=N)C(C#N)C3c2ccccc2)c(Cl)c(Br)c1O (stereo not drawn) [6-amino-1-(3-bromo-2-chloro-4-hydroxy-5-methoxyphenyl)-3-methyl-4-phenyl-1,4-dihydropyrano[2,3-c]pyrazole-5-carbonitrile] | 32.5 |
| Cc1nc2c(C)cccn2c1C(=O)C1C(=O)C(=O)N(CCN2CCOCC2)C1c1cccs1 (stereo not drawn) [(4E)-4-[(2,8-dimethyl-3-imidazo[1,2-a]pyridinyl)-hydroxymethylidene]-1-[2-(4-morpholinyl)ethyl]-5-thiophen-2-ylpyrrolidine-2,3-dione] | > 66.7 |
| C=C(c1ccc(Br)cc1)c1sc(N2CCCC2)nc1O [(5Z)-5-[1-(4-bromophenyl)ethylidene]-2-(1-pyrrolidinyl)-4-thiazolone] | > 66.7 |
| COCc1cc(C2C(C(=O)c3ccco3)C(=O)C(=O)N2CCOCCO)ccc1O (stereo not drawn) [3-(furan-2-carbonyl)-4-hydroxy-1-[2-(2-hydroxyethoxy)ethyl]-2-[4-hydroxy-3-(methoxymethyl)phenyl]-2H-pyrrol-5-one] | 29.7 |
| CCCCc1c(O)n(-c2ccccc2)n(-c2ccccc2)c1=O [3,5-Dioxo-1,2-diphenyl-4-n-butylpyrazolidine] | 5.3 |

The remaining lines, values ahead:

| IC50 [µM] | SMILES |
| --- | --- |
| > 66.7 | COc1cccc(OC)c1C(=O)C(C#N)c1nc2ccccc2[nH]1 (stereo not drawn) [SMR000024183] |
| > 66.7 | CCOc1cccc(C(=O)C2C(=O)C(=O)N(Cc3cccnc3)C2c2ccco2)c1 (stereo not drawn) [(4Z)-4-[(3-ethoxyphenyl)-hydroxymethylidene]-5-(2-furanyl)-1-(3-pyridinylmethyl)pyrrolidine-2,3-dione] |
| > 66.7 | COCCN1C(=O)C(=O)C(C(=O)c2cccs2)C1c1ccccc1 (stereo not drawn) [1-(2-methoxyethyl)-4-oxidanyl-2-phenyl-3-thiophen-2-ylcarbonyl-2H-pyrrol-5-one] |
| 5.5 | COc1ccccc1C1C(C(=O)c2ccccc2)C(=O)C(=O)N1CC(C)C (stereo not drawn) [(4Z)-4-[hydroxy(phenyl)methylene]-1-isobutyl-5-(2-methoxyphenyl)pyrrolidine-2,3-quinone] |
| 30.4 | CCOc1cc(C2C(C(=O)c3ccc(C)o3)C(=O)C(=O)N2CCc2ccccc2)ccc1O (stereo not drawn) [2-(3-ethoxy-4-hydroxyphenyl)-4-hydroxy-3-(5-methylfuran-2-carbonyl)-1-(2-phenylethyl)-2H-pyrrol-5-one] |
| 11.6 | Cc1ccc(C2C(C(=O)c3ccc(Cl)cc3)C(=O)C(=O)N2CC2CCCO2)o1 (stereo not drawn) [(4Z)-4-[(4-chlorophenyl)-hydroxy-methylene]-5-(5-methyl-2-furyl)-1-(tetrahydrofurfuryl)pyrrolidine-2,3-quinone] |
| 24.6 | COc1ccccc1C1C(C(=O)c2ccccc2)C(=O)C(=O)N1CC(C)O (stereo not drawn) [(4Z)-4-[hydroxy(phenyl)methylene]-1-(2-hydroxypropyl)-5-(2-methoxyphenyl)pyrrolidine-2,3-quinone] |
| 19.7 | COc1cc(C2C(C(=O)c3ccc(C)o3)C(=O)C(=O)N2CCc2ccccc2)ccc1O (stereo not drawn) [2-(3-methoxy-4-oxidanyl-phenyl)-3-(5-methylfuran-2-yl)carbonyl-4-oxidanyl-1-(2-phenylethyl)-2H-pyrrol-5-one] |
| 57.7 | CCOc1ccc(C(=O)C2C(=O)C(=O)N(c3nc(C)c(C)s3)C2c2ccco2)cc1 (stereo not drawn) [(4Z)-1-(4,5-dimethyl-1,3-thiazol-2-yl)-4-[(4-ethoxyphenyl)-hydroxymethylidene]-5-(furan-2-yl)pyrrolidine-2,3-dione] |
| > 66.7 | COC(=O)Cc1n[nH]c2c1C(C1C=CCCC1)C(C#N)C(=N)O2 (stereo not drawn) [2-[6-amino-5-cyano-4-(1-cyclohex-2-enyl)-2,4-dihydropyrano[2,3-c]pyrazol-3-yl]acetic acid methyl ester] |
| > 66.7 | CC1Cc2cc(C(=O)C3C(=O)C(=O)N(CCN4CCOCC4)C3c3ccccc3F)ccc2O1 (stereo not drawn) [(4E)-5-(2-fluorophenyl)-4-[(2-methyl-2,3-dihydro-1-benzofuran-5-yl)-oxidanyl-methylidene]-1-(2-morpholin-4-ylethyl)pyrrolidine-2,3-dione] |
| > 66.7 | Cc1ccc(C)c(C(=O)C2C(=O)C(=O)N(CCCn3ccnc3)C2c2ccncc2)c1 (stereo not drawn) [(4E)-4-[(2,5-dimethylphenyl)-hydroxy-methylene]-1-(3-imidazol-1-ylpropyl)-5-(4-pyridyl)pyrrolidine-2,3-quinone] |
| > 66.7 | COc1ccc(OC)c(C2C(C(=O)c3cccs3)C(=O)C(=O)N2c2cc(C)on2)c1 (stereo not drawn) [2-(2,5-dimethoxyphenyl)-1-(5-methyl-1,2-oxazol-3-yl)-4-oxidanyl-3-thiophen-2-ylcarbonyl-2H-pyrrol-5-one] |
| > 66.7 | COc1cccc(C2C(C(=O)c3cc4ccccc4o3)C(=O)C(=O)N2c2cc(C)on2)c1OC (stereo not drawn) [3-(1-benzofuran-2-carbonyl)-2-(2,3-dimethoxyphenyl)-4-hydroxy-1-(5-methyl-1,2-oxazol-3-yl)-2H-pyrrol-5-one] |
| 13.8 | CCCOc1ccc(C2C(C(=O)c3ccc(C)o3)C(=O)C(=O)N2CCCn2ccnc2)cc1 (stereo not drawn) [1-(3-imidazol-1-ylpropyl)-3-(5-methylfuran-2-yl)carbonyl-4-oxidanyl-2-(4-propoxyphenyl)-2H-pyrrol-5-one] |
